In brackets after ≈: the same amount, converted by molar mass.
Columns and labels:
Cavia porcellus = experiment: Antiinflammatory activity in po dosed substance P-induced guinea pig model of dermal inflammation; format: functional; conditions: read-out: ID50 (the source's name)
[1] = Dissociation constant, pKa of the compound; format: physicochemical
[2] = Inhibition of Calcium channel (unknown origin); parameters: species or system Homo sapiens
[3] = Half-life in human; format: ADME
[4] = target: Polymerase acidic protein (Influenza A virus (A/Puerto Rico/8/1934(H1N1)), UniProt P03433); experiment: Inhibition of Influenza A virus CEN
[5] = Stability of the compound in 0.01 N HCL at pH 2.0 assessed as half-life; format: physicochemical
Plasmodium falciparum = experiment: Antiplasmodial activity against Plasmodium falciparum W2 assessed as inhibition of parasite growth; format: functional, organism-based
[6] = Oral bioavailability in mouse; format: ADME, organism-based; conditions: in vivo
[7] = Half-life in po dosed rat; format: ADME, organism-based; conditions: in vivo
[8] = Stability of the compound at pH 2 assessed as half-life; format: physicochemical; conditions: buffer
[9] = Half-life in iv dosed rat plasma; format: ADME, organism-based
[10] = Inhibition of Acinetobacter baumannii beta-lactamase OXA-235
[11] = Inhibition of Acinetobacter baumannii beta-lactamase OXA-24
[12] = Inhibition of Acinetobacter baumannii beta-lactamase OXA-143
[13] = system: Human immunodeficiency virus 1; experiment: microbe, parasite or virus in culture; conditions: Human immunodeficiency virus 1, LAV
[14] = system: Human immunodeficiency virus 1; experiment: Antiviral activity against HIV-1 RF; format: functional, organism-based; conditions: Human immunodeficiency virus 1, RF
[15] = target: Hepatitis C virus serine protease, NS3/NS4A (Hepatitis C virus, UniProt A3EZI9+D2K2A8); experiment: Inhibition of Hepatitis C virus NS4A-NS3 protease by continuous assay; format: protein-complex assay, Hepacivirus hominis
Sequence of Hepatitis C virus serine protease, NS3/NS4A (D2K2A8 whole entry): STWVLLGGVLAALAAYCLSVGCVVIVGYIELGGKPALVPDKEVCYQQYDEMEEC
Sequence of Hepatitis C virus serine protease, NS3/NS4A (A3EZI9 whole entry): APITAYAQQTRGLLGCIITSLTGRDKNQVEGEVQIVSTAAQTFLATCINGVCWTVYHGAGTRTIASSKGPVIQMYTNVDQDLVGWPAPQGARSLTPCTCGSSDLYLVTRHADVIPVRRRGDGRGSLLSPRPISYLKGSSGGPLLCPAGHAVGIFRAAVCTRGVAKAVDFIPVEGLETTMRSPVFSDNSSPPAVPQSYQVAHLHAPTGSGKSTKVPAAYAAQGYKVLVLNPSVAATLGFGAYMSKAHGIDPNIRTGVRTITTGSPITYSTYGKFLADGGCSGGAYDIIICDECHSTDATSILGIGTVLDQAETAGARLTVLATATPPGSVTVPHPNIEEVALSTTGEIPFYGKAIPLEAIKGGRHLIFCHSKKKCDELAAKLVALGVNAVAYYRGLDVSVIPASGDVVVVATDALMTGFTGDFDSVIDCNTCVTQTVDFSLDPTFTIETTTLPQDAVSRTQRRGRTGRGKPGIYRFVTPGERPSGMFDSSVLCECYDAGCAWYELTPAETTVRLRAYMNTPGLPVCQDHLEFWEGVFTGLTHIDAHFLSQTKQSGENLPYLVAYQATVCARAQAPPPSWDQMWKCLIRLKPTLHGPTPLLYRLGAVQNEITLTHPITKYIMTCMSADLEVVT

[16] = Stability of the compound assessed as compound hydrolysis by measuring relative rate constant by dilatometric method; format: physicochemical
[17] = Drug concentration in rat plasma at 10 mg/kg, po measured after 90 mins; format: ADME, organism-based
[18] = Drug recovery in mouse urine; format: ADME; conditions: pooled result: one value given for 8 cell lines, strains, targets or settings, read-out: Drug recovery
[19] = Solubility of the compound at pH 7.4; format: physicochemical; conditions: buffer
[20] = Stability of the compound assessed as compound hydrolysis by measuring rate constant; format: physicochemical
[21] = Stability of the compound at pH 7.4 aqueous phosphate buffer assessed as half-life; format: physicochemical
[22] = target: Sterol O-acyltransferase 1 (Rattus norvegicus, UniProt O70536); experiment: Inhibition of ACAT in rat
Sequence of Sterol O-acyltransferase 1 (O70536 whole entry): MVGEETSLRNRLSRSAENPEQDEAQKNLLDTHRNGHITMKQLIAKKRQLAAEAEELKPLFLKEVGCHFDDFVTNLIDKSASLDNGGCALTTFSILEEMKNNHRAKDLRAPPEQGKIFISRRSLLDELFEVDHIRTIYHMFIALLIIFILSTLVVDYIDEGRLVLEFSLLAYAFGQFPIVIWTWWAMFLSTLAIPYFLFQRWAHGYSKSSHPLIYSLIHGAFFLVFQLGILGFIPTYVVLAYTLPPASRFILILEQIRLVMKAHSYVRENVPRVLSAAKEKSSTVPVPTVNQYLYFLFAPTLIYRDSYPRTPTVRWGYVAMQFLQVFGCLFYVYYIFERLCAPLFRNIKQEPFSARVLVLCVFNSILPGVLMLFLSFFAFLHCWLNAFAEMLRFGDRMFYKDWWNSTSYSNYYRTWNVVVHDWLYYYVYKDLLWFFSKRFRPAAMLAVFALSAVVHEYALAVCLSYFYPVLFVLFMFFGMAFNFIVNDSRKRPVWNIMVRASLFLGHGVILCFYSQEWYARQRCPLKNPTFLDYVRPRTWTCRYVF

Substance-P receptor = Substance-P receptor (Homo sapiens, UniProt P25103); experiment: Displacement of [125I]-labeled SP from human NK-1 receptor expressed in CHO cells at 1 uM relative to control; format: cell-based; conditions: filed as antagonist
Sequence of Substance-P receptor (P25103 whole entry): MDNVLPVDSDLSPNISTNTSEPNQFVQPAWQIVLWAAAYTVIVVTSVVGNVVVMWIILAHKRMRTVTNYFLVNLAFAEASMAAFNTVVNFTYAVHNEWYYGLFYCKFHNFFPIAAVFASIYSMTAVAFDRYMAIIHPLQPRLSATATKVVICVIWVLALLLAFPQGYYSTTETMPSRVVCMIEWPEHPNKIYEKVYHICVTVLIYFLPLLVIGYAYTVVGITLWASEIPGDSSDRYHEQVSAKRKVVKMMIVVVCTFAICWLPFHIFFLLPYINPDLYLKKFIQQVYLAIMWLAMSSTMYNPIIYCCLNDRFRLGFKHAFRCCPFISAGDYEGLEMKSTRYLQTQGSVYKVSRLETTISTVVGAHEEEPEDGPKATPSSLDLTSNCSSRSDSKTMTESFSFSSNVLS

[23] = Bioavailability in rat at 0.5 mg/kg, iv measured after 30 mins by LC-MS/MS analysis; format: ADME, organism-based; conditions: in vivo
PXR (NR1I2) = PXR (NR1I2) (Homo sapiens, UniProt O75469); experiment: Activation of PXR (unknown origin) in human DPX2 cells assessed as maximal efficacy at 15 uM relative to control; format: cell-based
Sequence of PXR (NR1I2) (O75469 whole entry): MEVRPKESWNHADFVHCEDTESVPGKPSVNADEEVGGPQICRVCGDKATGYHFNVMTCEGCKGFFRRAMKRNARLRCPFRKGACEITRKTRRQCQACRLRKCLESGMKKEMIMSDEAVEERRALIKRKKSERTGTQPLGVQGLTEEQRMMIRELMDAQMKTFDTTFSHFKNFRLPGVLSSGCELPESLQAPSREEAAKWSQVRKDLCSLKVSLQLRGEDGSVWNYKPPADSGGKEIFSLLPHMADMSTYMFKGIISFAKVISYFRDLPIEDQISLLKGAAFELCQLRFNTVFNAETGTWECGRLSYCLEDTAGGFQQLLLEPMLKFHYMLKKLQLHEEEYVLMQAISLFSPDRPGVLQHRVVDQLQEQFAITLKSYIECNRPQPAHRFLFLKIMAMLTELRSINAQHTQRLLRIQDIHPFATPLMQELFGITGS

[24] = system: Human immunodeficiency virus 1; experiment: Selectivity index, ratio of EC50 for antiviral activity against HIV-1 G140S/Q148R mutant to EC50 for antiviral activity against wild-type HIV-1; format: functional
[25] = Unbound fraction in human plasma; format: ADME, cell-free
[26] = Solubility of the compound at pH 7 incubated for 12 hrs by UPLC analysis; format: physicochemical; conditions: buffer, pH 7, 12 h
[27] = system: Human immunodeficiency virus 1; experiment: Antiviral activity against HIV1 infected in human MT4 cells assessed as inhibition of viral replication; format: functional, organism-based; conditions: Human immunodeficiency virus 1, MT4
[28] = Bioavailability in dog at 1 mg/kg, iv measured after 30 mins by LC-MS/MS analysis; format: ADME, organism-based, Canis lupus familiaris; conditions: in vivo
[29] = Drug degradation in citrate buffer at pH 8.5 measured after 18 hrs; format: physicochemical; conditions: read-out: Drug degradation
[30] = Drug degradation in citrate buffer at pH 4 measured after 18 hrs; format: physicochemical; conditions: read-out: Drug degradation

## O=c1[nH]nc(CN2CCC[C@H](OCc3cc(C(F)(F)F)cc(C(F)(F)F)c3)[C@@H]2c2ccccc2)[nH]1
Cavia porcellus
  ED50: 0.037 mg/kg
[1]
  pKa: 5.3
[2]
  IC50: 13 µM

## O=C1c2c(O)c(=O)ccn2N([C@@H]2c3ccccc3SCc3c2ccc(F)c3F)[C@@H]2COCCN12 [BALOXAVIR]
[3]
  half-life: 4740 min
[4]
  IC50: 2.5 nM

## C[C@H]1[C@@H](O)O[C@@H]2O[C@@]3(C)CC[C@H]4[C@H](C)CC[C@@H]1[C@@]24OO3 [ARTENIMOL]
[5]
  half-life: 1020 min
Plasmodium falciparum
  IC50: 0.45 nM
[6]
  bioavailability: 1.4%
[7]
  half-life: 30 min
[8]
  half-life: 1020 min
[9]
  half-life: 23 min

## C[C@]1(COC(=O)Cc2ccc(O)c(O)c2)[C@H](C(=O)O)N2C(=O)/C(=C/c3ccccn3)[C@H]2S1(=O)=O
[10]
  IC50: 8 nM
[11]
  IC50: 0.015 µM
[12]
  IC50: 3 nM

## C[C@]1(Cn2ccnn2)[C@H](C(=O)O)N2C(=O)C[C@H]2S1(=O)=O [TAZOBACTAM]
[10]
  IC50: 4880 nM
[11]
  IC50: 27.9 µM
[12]
  IC50: 5900 nM

## Nc1ccn([C@H]2CS[C@@H](CO)O2)c(=O)n1
[13]
  EC50: 200 nM
[14]
  IC50: 1220 nM

## CCC[C@H](NC(=O)[C@@H]1[C@H]2O[C@H]3CCCOc4cccc(c4)CC(=O)N[C@@H](C4CCCCC4)CN1C[C@@H]2O3)C(=O)C(=O)NCC(=O)N[C@H](C(=O)O)c1ccccc1
[15]
  Ki: 38 nM

## CCC[C@H](NC(=O)[C@@H]1[C@H]2O[C@H]3CCCOc4cccc(c4)CC(=O)N[C@@H](C4CCCCC4)CN1C[C@@H]2O3)C(=O)C(=O)NCC(=O)N[C@H](C(=O)OC(C)(C)C)c1ccccc1
[15]
  Ki: 38 nM

## CC1OCCO1
[16]
  K: 5.1 10^3No_unit

## c1ccc(-c2nc([C@H]3OC[C@@H](CCCCN4CCSCC4)CO3)[nH]c2-c2ccccc2)cc1
[17]
  concentration at 1.5 h: 2200 nM

## CC1(C)O[C@@H]2[C@@H](CC[C@@]3(COS(N)(=O)=O)OC(C)(C)O[C@@H]23)O1
[18]
  dose excreted: 89%

## Nc1nc(O)c2ncn(COC(CO)CO)c2n1 [GANCICLOVIR]
[19]
  solubility: 2000 µg/mL (≈ 7.84 mM)

## FC1(F)[C@H]2O[C@@H]1[C@H](COCc1ccccc1)[C@@H](COCc1ccccc1)O2
[20]
  K: 2.4 10^-3/M/s
[21]
  half-life: > 30 days

## Nc1ccn([C@@H]2CS[C@H](CO)O2)c(=O)n1 [LAMIVUDINE]
[13]
  EC50: 2000 nM
[14]
  IC50: 870 nM

## Cc1cc(C)n(CCCC[C@H]2CO[C@@H](c3nc(-c4ccccc4)c(-c4ccccc4)[nH]3)OC2)n1
[22]
  IC50: 75 nM

## C1COCO1
[16]
  K: 1

## c1ccc(-c2nc(C3OCCCO3)[nH]c2-c2ccccc2)cc1
[22]
  IC50: 110 nM

## O=c1[nH]nc(CN2CCO[C@H](OCc3cc(C(F)(F)F)cc(C(F)(F)F)c3)[C@@H]2c2ccccc2)[nH]1
Cavia porcellus
  ED50: 0.009 mg/kg
[1]
  pKa: < 3
[2]
  IC50: 12 µM

## Fc1ccc([C@@H]2NCCO[C@@]23CC[C@H](c2ccccc2C(F)(F)F)CO3)cc1
Substance-P receptor
  Activity: 44%

## O=C(NCc1c(F)cc(F)cc1F)c1cn2c(c(O)c1=O)C(=O)N1[C@H]3CC[C@H](C3)O[C@@H]1C2 [BICTEGRAVIR]
[23]
  bioavailability: 50%
PXR (NR1I2)
  Emax at 15 µM: 18%
[24]
  Ratio EC50: 2
[3]
  half-life: 1140 min
[25]
  Fu: 0.3%
[26]
  solubility: 119 µg/mL (≈ 0.265 mM)
[27]
  EC50: 1.9 nM
[28]
  bioavailability: 28%

## COc1ccc(C2=CN(CNC(C)=O)CC2=O)cc1
[29]
  degraded at 18 h: 40%
[30]
  degraded at 18 h: < 1%
[1]
  pKa: < 6

From ChEMBL document CHEMBL5244275, “Geminal Diheteroatomic Motifs: Some Applications of Acetals, Ketals, and Their Sulfur and Nitrogen Homologues in Medicinal Chemistry and Drug Design” (J Med Chem, 2021)
